We go through 24 molecules from patent publication US8344027B2, “4-dimethylaminobutyric acid derivatives” (Hoffmann-La Roche Inc., priority 2008, dated 2013).

Assay [1] concerns the target T1, hL-CPT1 (Homo sapiens, UniProt P50416).
T1 construct: made in house; host or cells: Pichia pastoris strain X-33
T1 sequence (P50416 1-773): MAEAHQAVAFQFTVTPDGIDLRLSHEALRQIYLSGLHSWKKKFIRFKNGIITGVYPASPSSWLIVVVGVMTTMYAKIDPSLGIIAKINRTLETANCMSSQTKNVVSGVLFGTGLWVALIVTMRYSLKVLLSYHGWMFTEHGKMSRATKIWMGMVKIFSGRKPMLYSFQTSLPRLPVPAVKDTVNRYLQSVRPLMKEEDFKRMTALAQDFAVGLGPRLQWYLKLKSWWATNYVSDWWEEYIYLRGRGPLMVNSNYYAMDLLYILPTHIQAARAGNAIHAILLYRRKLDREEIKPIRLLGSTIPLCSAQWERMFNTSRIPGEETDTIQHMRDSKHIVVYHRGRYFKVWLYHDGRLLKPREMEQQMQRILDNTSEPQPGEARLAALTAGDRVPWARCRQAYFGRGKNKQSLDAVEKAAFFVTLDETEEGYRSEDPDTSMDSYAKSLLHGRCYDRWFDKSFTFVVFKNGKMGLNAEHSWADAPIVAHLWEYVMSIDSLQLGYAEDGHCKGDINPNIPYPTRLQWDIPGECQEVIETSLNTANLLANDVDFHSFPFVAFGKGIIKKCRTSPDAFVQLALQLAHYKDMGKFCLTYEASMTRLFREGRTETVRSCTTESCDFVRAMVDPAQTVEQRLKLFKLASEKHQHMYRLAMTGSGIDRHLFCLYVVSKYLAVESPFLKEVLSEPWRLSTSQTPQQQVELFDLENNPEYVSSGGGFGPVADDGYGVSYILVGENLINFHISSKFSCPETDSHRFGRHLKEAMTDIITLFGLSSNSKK
In words: liver CPT1 inhibition, spectrophotometric DTNB (Ellman's reagent) assay. It counts as biochemical. The conditions noted are these: human liver CPT1 expressed in P. pastoris, cell extract; carnitine 500 μM, palmitoyl-CoA 80 μM, DTNB 300 μM. As for the experimental part: (§1) The following tests were carried out in order to determine the activity of the compounds of the present invention. Background information on the performed assays can be found in: Jackson et al., 1999, Biochem. J. 341, 483-489 and Jackson et al., 2000, J. Biol. Chem. 275, 19560-19566.
(§2) Human and rat CPT2- and liver CPT1 cDNAs, and human muscle CPT1 cDNA were subcloned in pGAPZB or pGAPZA, respectively. These plasmids were used to transform P. pastoris strain X-33 via electroporation after the preparation of electrocompetent cells. High copy number clones were selected where necessary using 0.5 or 1 mg/ml Zeocin. Cultures for activity measurements were induced for 16 h in YPD medium (1% yeast extract, 2% peptone, 2% glucose). Crude cell extracts were prepared by disrupting the cells with glass beads or French Press, depending on fermenter sizes. After centrifugation, the cell-free extracts were resuspended in cell breaking buffer (50 mM Tris, pH7.4, 100 mM KCl, 1 mM EDTA) in the presence of a protease inhibitor cocktail, before aliquoting and freezing at −20° C.
(§3) CPT activity was measured using a spectrophotometric assay using 5,5′-dithio-bis-(2-nitrobenzoic acid) (DTNB) also called Ellman's reagent. The HS-CoA released on the formation of acylcarnitine from carnitine (500 μM) and palmitoyl-CoA (80 μM) reduced DTNB (300 μM) forming 5-mercapto-2-nitrobenzoic acid which absorbed at 410 nm with a molar extinction coefficient of 13600 M^−1cm^−1. The assay buffer contained 120 mM KCl, 25 mM Tris, pH 7.4, 1 mM EDTA. This assay was used for the identification of CPT inhibitors, particularly/preferentially CPT2-selective inhibitors, versus the liver and muscle CPT1 isoforms.
On the technique in general: In Ellman's method for cholinesterases, released thiocholine reacts with DTNB.

Assay [2] concerns the target T2, hCPT2 (Homo sapiens, UniProt P23786).
T2 construct: made in house; host or cells: Pichia pastoris strain X-33
T2 sequence (P23786 26-658): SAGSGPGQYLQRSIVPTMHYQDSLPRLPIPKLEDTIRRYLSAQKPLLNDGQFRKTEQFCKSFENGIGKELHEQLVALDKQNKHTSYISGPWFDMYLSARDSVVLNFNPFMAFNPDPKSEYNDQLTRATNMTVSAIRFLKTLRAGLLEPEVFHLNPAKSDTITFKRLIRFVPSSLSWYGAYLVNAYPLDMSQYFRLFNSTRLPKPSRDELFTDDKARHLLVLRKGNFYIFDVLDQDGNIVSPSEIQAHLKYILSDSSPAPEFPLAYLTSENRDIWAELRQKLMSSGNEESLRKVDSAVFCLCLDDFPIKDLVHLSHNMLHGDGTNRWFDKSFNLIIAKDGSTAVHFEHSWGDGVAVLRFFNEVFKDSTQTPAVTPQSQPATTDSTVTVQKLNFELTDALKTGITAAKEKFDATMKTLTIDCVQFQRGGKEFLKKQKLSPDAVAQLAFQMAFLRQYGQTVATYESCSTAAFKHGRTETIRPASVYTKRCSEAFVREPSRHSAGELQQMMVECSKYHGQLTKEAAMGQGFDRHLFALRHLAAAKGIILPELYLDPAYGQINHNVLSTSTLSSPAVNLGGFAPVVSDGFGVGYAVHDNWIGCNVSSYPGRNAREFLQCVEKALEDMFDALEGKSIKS
In words: CPT2 inhibition, spectrophotometric DTNB (Ellman's reagent) assay. In kind it is biochemical. Conditions: human CPT2 expressed in P. pastoris, cell extract; carnitine 500 μM, palmitoyl-CoA 80 μM, DTNB 300 μM. As to the method: as §1, §2, §3

What is called IC50 is the midpoint of a concentration-inhibition curve. Read a low IC50 as higher potency.

On to `CN(C)C[C@@H](CC(=O)O)NC(=O)CCCCCCCOCc1ccc(F)c(F)c1` [Example 1, (R)-3-[8-(3,4-Difluoro-benzyloxy)-octanoylamino]-4-dimethylamino-butyric acid], for which the IC50 amounted to 7.77 µM in assay [1] and 0.91 µM in assay [2]. In the case of `CN(C)C[C@@H](CC(=O)O)NC(=O)CCCCCCCOCc1cc(F)ccc1F` [Example 2, (R)-3-[8-(2,5-Difluoro-benzyloxy)-octanoylamino]-4-dimethylamino-butyric acid], the results for the IC50 in assay [1] and in assay [2] were above 10 µM and 3.49 µM, respectively. As for `CN(C)C[C@@H](CC(=O)O)NC(=O)CCCCCCCOCc1ccc(C(F)(F)F)cc1` [Example 6, (R)-4-Dimethylamino-3-[8-(4-trifluoromethyl-benzyloxy)-octanoylamino]-butyric acid], the IC50 in assay [1] is above 10 µM; in assay [2], 0.189 µM. Consider `CN(C)C[C@@H](CC(=O)O)NC(=O)CCCCCCCOCc1ccc(C(F)(F)F)c(F)c1` [Example 7, (R)-4-Dimethylamino-3-[8-(3-fluoro-4-trifluoromethyl-benzyloxy)-octanoylamino]-butyric acid], for which the IC50 in assay [1] came to 5.99 µM; in assay [2], 0.591 µM. In the same order, the values of `COc1ccc(COCCCCCCCC(=O)N[C@H](CC(=O)O)CN(C)C)cc1` [Example 8, (R)-4-Dimethylamino-3-[8-(4-methoxy-benzyloxy)-octanoylamino]-butyric acid] are above 10 µM and 0.152 µM.

As for `CN(C)C[C@@H](CC(=O)O)NC(=O)CCCCCCCOCc1ccc(-c2ccccc2)cc1` [Example 9, (R)-3-[8-(Biphenyl-4-ylmethoxy)-octanoylamino]-4-dimethylamino-butyric acid], the IC50 in assay [1] was found to be 5.79 µM; in assay [2], 0.002 µM. As for `CN(C)C[C@@H](CC(=O)O)NC(=O)CCCCCCCOCc1ccc(C(F)(F)F)cc1F` [Example 10, (R)-4-Dimethylamino-3-[8-(2-fluoro-4-trifluoromethyl-benzyloxy)-octanoylamino]-butyric acid], the results for the IC50 in assay [1] and in assay [2] were above 10 µM and 0.694 µM, respectively. On to `COc1c(F)c(F)c(COCCCCCCCC(=O)N[C@H](CC(=O)O)CN(C)C)c(F)c1F` [Example 11, (R)-4-Dimethylamino-3-[8-(2,3,5,6-tetrafluoro-4-methoxy-benzyloxy)-octanoylamino]-butyric acid], for which the IC50 is above 10 µM in assay [1] and 2.94 µM in assay [2]. Consider `CN(C)C[C@@H](CC(=O)O)NC(=O)CCCCCCCOCc1cccc2ccccc12` [Example 12, (R)-4-Dimethylamino-3-[8-(naphthalen-1-ylmethoxy)-octanoylamino]-butyric acid], for which the IC50 is above 10 µM in assay [1] and 0.3 µM in assay [2]. `CN(C)C[C@@H](CC(=O)O)NC(=O)CCCCCCCOCc1ccccc1F` [Example 13, (R)-4-Dimethylamino-3-[8-(2-fluoro-benzyloxy)-octanoylamino]-butyric acid]: the results for the IC50 in assay [1] and in assay [2] were above 10 µM and 2.63 µM, respectively. `CN(C)C[C@@H](CC(=O)O)NC(=O)CCCCCCCOCc1cccc(F)c1` [Example 14, (R)-4-Dimethylamino-3-[8-(3-fluoro-benzyloxy)-octanoylamino]-butyric acid]: the IC50 in assay [1] is above 10 µM; in assay [2], 0.783 µM. For `CN(C)C[C@@H](CC(=O)O)NC(=O)CCCCCCCOCc1ccc(F)cc1` [Example 15, (R)-4-Dimethylamino-3-[8-(4-fluoro-benzyloxy)-octanoylamino]-butyric acid], the IC50 amounted to 6.55 µM in assay [1] and 2.06 µM in assay [2].

In the case of `CN(C)C[C@@H](CC(=O)O)NC(=O)CCCCCCCOCc1ccccc1` [Example 17, (R)-3-(8-Benzyloxy-octanoylamino)-4-dimethylamino-butyric acid], the IC50 in assay [1] was above 10 µM; in assay [2], 1.56 µM. In the same order, the values of `CN(C)C[C@@H](CC(=O)O)NC(=O)CCCCCCCCOc1ccccc1F` [Example 18, (R)-4-Dimethylamino-3-[9-(2-fluoro-phenoxy)-nonanoylamino]-butyric acid] are above 10 µM and 0.452 µM. In the case of `CN(C)C[C@@H](CC(=O)O)NC(=O)CCCCCCCCOc1cccc(F)c1` [Example 19, (R)-4-Dimethylamino-3-[9-(3-fluoro-phenoxy)-nonanoylamino]-butyric acid], the values for the IC50 in assay [1] and in assay [2] were 2.33 µM and 0.016 µM, respectively. Regarding `CN(C)C[C@@H](CC(=O)O)NC(=O)CCCCCCCCOc1ccc(F)cc1` [Example 20, (R)-4-Dimethylamino-3-[9-(4-fluoro-phenoxy)-nonanoylamino]-butyric acid], the IC50 in assay [1] turned out to be 1 µM; in assay [2], 0.021 µM. `CN(C)C[C@@H](CC(=O)O)NC(=O)CCCCCCCCOc1cccc(F)c1F` [Example 21, (R)-3-[9-(2,3-Difluoro-phenoxy)-nonanoylamino]-4-dimethylamino-butyric acid]: the IC50 in assay [1] amounted to 6.68 µM; in assay [2], 0.265 µM. For `CN(C)C[C@@H](CC(=O)O)NC(=O)CCCCCCCCOc1ccc(F)cc1F` [Example 22, (R)-3-[9-(2,4-Difluoro-phenoxy)-nonanoylamino]-4-dimethylamino-butyric acid], the IC50 in assay [1] worked out at 8.63 µM; in assay [2], 0.268 µM. Taken in the same sequence, the figures for `CN(C)C[C@@H](CC(=O)O)NC(=O)CCCCCCCCOc1ccc(F)c(F)c1` [Example 23, (R)-3-[9-(3,4-Difluoro-phenoxy)-nonanoylamino]-4-dimethylamino-butyric acid] were 1.66 µM and 0.071 µM. On to `CN(C)C[C@@H](CC(=O)O)NC(=O)CCCCCCCCCCOc1ccccc1` [Example 30, (R)-4-Dimethylamino-3-(11-phenoxy-undecanoylamino)-butyric acid], for which the IC50 in assay [2] came to 0.036 µM. For `CN(C)C[C@@H](CC(=O)O)NC(=O)CCCCCCCCOCCc1ccccc1` [Example 54, (R)-4-Dimethylamino-3-(9-phenethyloxy-nonanoylamino)-butyric acid], the IC50 in assay [2] is 0.082 µM. Still for that read-out and setting: the same measure for `CN(C)C[C@@H](CC(=O)O)NC(=O)CCCCCCCOCCCc1ccccc1` [Example 55, (R)-4-Dimethylamino-3-[8-(3-phenyl-propoxy)-octanoylamino]-butyric acid]: 0.065 µM; for `CN(C)C[C@@H](CC(=O)O)NC(=O)CCCCCCCOCCOc1ccccc1` [Example 56, (R)-4-Dimethylamino-3-[8-(2-phenoxy-ethoxy)-octanoylamino]-butyric acid]: 0.101 µM; for “(R)-3-{3-[6-(2,3-Difluoro-benzyloxy)-hexyl]-ureido}-4-dimethylamino-butyric acid [Example 62]”: 1.44 µM.
